Test [1] deals with T1, Humanized mouse Aurora A (amino acids 107-403) (Mus musculus, UniProt P97477).
T1 sequence (P97477 1-395 N164G/K218R/M280L): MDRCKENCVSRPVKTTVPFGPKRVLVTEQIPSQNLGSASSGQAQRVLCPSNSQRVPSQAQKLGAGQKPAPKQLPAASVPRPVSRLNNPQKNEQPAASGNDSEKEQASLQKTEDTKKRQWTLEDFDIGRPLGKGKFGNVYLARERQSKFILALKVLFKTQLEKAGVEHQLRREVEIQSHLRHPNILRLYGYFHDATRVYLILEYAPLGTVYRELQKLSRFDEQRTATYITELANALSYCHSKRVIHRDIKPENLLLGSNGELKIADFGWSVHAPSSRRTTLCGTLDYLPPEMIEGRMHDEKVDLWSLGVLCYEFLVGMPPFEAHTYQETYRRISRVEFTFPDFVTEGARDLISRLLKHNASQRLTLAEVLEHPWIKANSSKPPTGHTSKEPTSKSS
The test can be described thus: Aurora A kinase assay (IMAP fluorescence polarization, FAM-PKAtide, 10 μM ATP). The format is biochemical. The method, then: Aurora A Kinase Assay: Humanized mouse Aurora A (amino acids 107-403) was expressed in E. coli as described herein. […] The kinase reaction was initiated by adding Aurora A at a final concentration of 0.3 nM and incubated at 21° C. for 30 min. As a positive control for enzyme activity, the reaction mixture was added to DMSO and as a negative control for enzyme activity, the reaction mixture was added to Compound 1 at a final concentration of 5 μM. Both control reactions were conducted in triplicate. To detect phosphorylated PKAtide, the kinase reaction was combined with Progressive Binding Solution (1:400 Progressive Binding Reagent, 1× Buffer A, Molecular Devices) in a 1:3 ratio. The mixture was incubated for 30 min at 25° C. and the plate was scanned on an Analyst AD with excitation at 485 nm and emission at 530 nm. The fluorescence polarization value “P” is defined by equation (1) below, where “Fpar” is the fluorescence intensity parallel to the excitation plane and “Fperp” is the fluorescence intensity perpendicular to the excitation plane. The value “mP” was generated by multiplying the P value for each reaction well by a factor of 1000. The percent relative enzymatic activity (“Y” values) was calculated by normalizing the mP value for each well to the average positive control. Relative enzymatic activity values were plotted as a function of the logarithm of compound concentration (“x”) and […] values were generated in GraphPad Prism software version 4.01 using Equation (2), where “x” is the logarithm of compound concentration and “Top”, “Bottom” and “HillSlope” are curve parameters calculated by the software. IC50 values were calculated as the concentration of compound at which enzymatic activity is 50%.
Fragment Library Pilot Screen. Fragment molecule plates were screened in 96-well plates at 5 μM in single-point format in the Aurora A Kinase assay as described above. All reaction mixtures resulting in greater than or equal to 50% inhibition of enzymatic activity were then tested in an IC50 assay. Original screening samples were used for follow-up IC50 experiments. LC/MS analysis was conducted on fragment assembly screening plates to confirm presence of desired test ligand in the reaction mixture. Confirmed hits were then resynthesized as purified thioether compounds and tested in an IC50 assay.

Test [2] concerns the target T2, Aurora A (Homo sapiens, UniProt O14965).
T2 sequence (O14965 1-403): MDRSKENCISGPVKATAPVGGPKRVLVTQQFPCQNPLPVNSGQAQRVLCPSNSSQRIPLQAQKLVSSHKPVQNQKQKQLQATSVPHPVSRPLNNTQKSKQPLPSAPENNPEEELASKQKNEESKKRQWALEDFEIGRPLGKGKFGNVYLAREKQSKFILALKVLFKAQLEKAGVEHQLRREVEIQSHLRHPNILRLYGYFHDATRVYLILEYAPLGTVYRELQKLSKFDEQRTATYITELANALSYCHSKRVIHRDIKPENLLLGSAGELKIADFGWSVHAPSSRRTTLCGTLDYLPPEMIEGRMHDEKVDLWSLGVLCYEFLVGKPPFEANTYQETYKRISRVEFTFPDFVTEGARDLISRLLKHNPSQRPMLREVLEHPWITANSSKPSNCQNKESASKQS
In words: Aurora A activity in cell based assays. Particulars: inhibition of Aurora A activity in cell based assays.

For test [3], the target named is T3, ALK (Invitrogen PV3867) (Homo sapiens, UniProt Q9UM73).
T3 construct: purchased Invitrogen PV3867
The test can be described thus: ALK kinase assay (LanthaScreen time-resolved FRET, 10 μM ATP). The format is biochemical. As to the method:
ALK kinase assays were conducted using the LanthaScreen® time-resolved FRET assay format (Invitrogen, Carlsbad Calif.). Assay conditions consisted of 15 pM (picomolar) ALK (Invitrogen PV3867), 10 μM ATP, and 100 nM substrate peptide FL-polyGT (Invitrogen PV3610) diluted in assay buffer (10 mM Tris pH 7.2, 10 mM MgCl, 1 mM DTT, 100 μM Na2OVO4. 0.01% Triton® X-100, 0.05% Casein). Control compounds and fragment-assembly reaction mixtures were diluted in DMSO to generate stock compounds at 20-fold final concentration. For IC50 assays, fragment-assembly reaction mixtures were titrated three-fold in DMSO and diluted 20-fold into the assay mixture. As a positive control for enzyme activity, the reaction mixture was added to DMSO, and, as a negative control for enzyme activity, the reaction mixture was added to staurosporine (Sigma) at a final concentration of 20 μM.
Fragment Library Pilot Screen. Fragment-assembly reaction mixtures were screened in 384-well plates at a concentration approximating 5-fold lower than that of the purine-mimetic bait fragment IC50 value, in single-point format in the ALK assay as described above. Reaction mixtures resulting in greater than or equal to 50% inhibition of enzymatic activity were then confirmed in single-point format, or tested in an IC50 assay. LC/MS analysis was conducted on fragment assembly screening plates to confirm the presence of desired test ligand in the reaction mixture.
A general note: In TR-FRET formats the signal depends on donor and acceptor labels being close together.

The mark [4] stands for this setting: Table 4, purified resynthesized molecule, read-out: Resynthesized Hit/Analog IC50.
[5] abbreviates: Table 5, bait, fragment and disulfide-assembled molecules, relative to concentration of fragment molecule, read-out: IC50.
Setting [6] is: Table 2, thioether chemistry: bait, test fragment, unpurified reaction mixtures and purified ligand, relative to concentration of fragment molecule, read-out: IC50.
The mark [7] stands for this setting: Table 1, disulfide chemistry: bait, fragments, unpurified reaction mixtures and purified ligand, relative to concentration of fragment molecule, read-out: IC50.
The mark [8] stands for this setting: Table 7, hit fragment alone, no bait, read-out: Fragment IC50.

Where “and” joins values, the source holds several entries; their conditions need not be identical. Identical values can stand only once. Like-named read-outs stand apart in the source and are kept apart here.

The values that follow come from US10107798B2, “Methods of chemotype evolution” (SUNESIS PHARMACEUTICALS, INC., priority 2008, dated 2018).

T3 sequence (Q9UM73 1058-1620 limits assumed): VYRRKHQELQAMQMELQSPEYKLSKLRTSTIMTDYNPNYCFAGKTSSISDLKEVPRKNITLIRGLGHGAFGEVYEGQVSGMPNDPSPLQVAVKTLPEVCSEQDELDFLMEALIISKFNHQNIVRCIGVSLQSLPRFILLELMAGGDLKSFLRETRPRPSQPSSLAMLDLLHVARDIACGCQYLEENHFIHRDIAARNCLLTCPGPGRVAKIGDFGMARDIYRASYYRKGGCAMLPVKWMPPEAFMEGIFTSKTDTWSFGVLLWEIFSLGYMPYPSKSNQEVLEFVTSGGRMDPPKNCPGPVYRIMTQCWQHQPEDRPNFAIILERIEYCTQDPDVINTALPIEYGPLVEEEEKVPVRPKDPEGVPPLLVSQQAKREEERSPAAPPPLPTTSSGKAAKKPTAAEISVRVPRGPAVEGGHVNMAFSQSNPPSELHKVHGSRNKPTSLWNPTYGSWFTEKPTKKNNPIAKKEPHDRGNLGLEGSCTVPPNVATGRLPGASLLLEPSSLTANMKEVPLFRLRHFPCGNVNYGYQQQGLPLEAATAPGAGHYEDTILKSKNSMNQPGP

By EC50 is commonly meant the concentration at which the effect is half-maximal. A low value points to an effect from little substance. `COc1ccc(C(=O)Nc2ccccc2)cc1NC(=O)CCSc1ncnc(N)c1Br` [Compound 15]: in test [1] (setting [4]), the IC50 worked out at 0.12 µM. In test [2], this compound had an EC50 of 1 µM. On to `CCCCNC(=O)c1cccc(NC(=O)CSSCCN)c1` [Compound 20], for which the IC50 in test [1] (setting [5]) was above 50 µM. Take `COc1ccccc1Nc1ncc(Cl)c(NCCS)n1` [Compound 26]: in test [3] (read-out: IC50), the IC50 was determined as 0.5 µM. Take `Clc1ncnc2ccsc12` [Compound 7]: the IC50 in test [1] (setting [6]) was found to be 28 µM. In the case of `NCCSSCCNC(=O)c1sc(C(F)(F)F)cc1O` [Compound 22], the IC50 in test [1] (setting [5]) is above 50 µM. Regarding `CNc1ncc(Cl)c(CCl)n1` [Compound 29], in test [3] (read-out: IC50), the IC50 was 7.8 µM.

`NCCSSCCNC(=O)Nc1cccc(C(F)(F)F)c1` [Compound 5]: the IC50 in test [1] (setting [7]) came to 30 µM. On the same count and under the same terms, the same measure for `O=C(NCCSSCCNc1ncnc2ccsc12)Nc1cccc(C(F)(F)F)c1` [Compound 3]: 1.6 µM. With `O=C(CS)Nc1ccc(Cl)cc1C(F)(F)F`, the IC50 in test [3] (setting [8]) worked out at 1.62 µM.

On to `O=C(CS)N1CCCN(c2nc3ccc(Cl)cc3s2)CC1` [Compound 32], for which, in test [3] (setting [8]), the IC50 came to 2 µM. Take `NCCSSCCc1cnc(NC(=O)Nc2cccc(C(F)(F)F)c2)s1` [Compound 8]: in test [1] (setting [6]), the IC50 was 10 µM and 12.2 µM.

Regarding `SCCNc1ncnc2ccsc12` [Compound 4], in test [1] (setting [7]), the IC50 came to 24 µM.

For the compound `NCCSSCCN` [Cystamine, reference compound], the IC50 in test [1] (setting [7]) was 55 µM; in test [1] (setting [6]) it was above 500 µM.

Take `CNc1ncc(Cl)c(Nc2cccc(CCl)c2)n1` [Compound 28]: the IC50 in test [3] (read-out: IC50) turned out to be 3.75 µM. With `O=C(Nc1cccc(C(F)(F)F)c1)Nc1ncc(CCSc2ncnc3ccsc23)s1` [Compound 6, reference compound], the IC50 in test [1] (thioether chemistry, product mixture and purified compound, read-out: IC50) is 0.005 µM. For the compound `CCCCNC(=O)c1cccc(NC(=O)CCCCCNc2ncnc3ccsc23)c1` [Compound 21], the IC50 in test [1] (setting [5]) amounted to 4.1 µM. On to `CC(C)S(=O)(=O)c1ccccc1Nc1nc(NCCS)ncc1Cl` [Compound 27], for which, in test [3] (read-out: IC50), the IC50 is 0.25 µM. On to `O=C(NCCSc1ncnc2[nH]ccc12)Nc1ccc(C(=O)O)c(O)c1` [Compound 17], for which, in test [1] (setting [4]), the IC50 was 0.4 µM. With `O=C(NCCCCCNc1ncnc2ccsc12)c1sc(C(F)(F)F)cc1O` [Compound 23], the IC50 in test [1] (setting [5]) came out at 11.5 µM. On to `Nc1ncnc(NCCc2cnc(NC(=O)Nc3cccc(C(F)(F)F)c3)s2)c1Br` [Compound 18], for which the IC50 in test [1] (setting [4]) came out at 0.005 µM. In test [2], the EC50 was 0.05 µM.

For the compound `COc1cccc(C)c1NC(=O)NCCS`, the IC50 in test [3] (setting [8]) is 6.64 µM.

Consider `COc1ccc(C(=O)Nc2ccccc2)cc1NC(=O)CCSCc1cnc2[nH]ccc2c1` [Compound 16], for which the IC50 in test [1] (setting [4]) is 0.15 µM.
